Measurements reported in patent US20140024662A1, “COMPOUNDS, SCREENS, AND METHODS OF TREATMENT” (Shanghai Institute of Organic Chemistry, priority 2006, published 2014).
“Also recorded” adds a separate entry of the source. Read-outs that look alike come from different tables or passages of the source.

Tested on: FADD-deficient Jurkat cells
Assay: necroptosis assay: FADD-deficient Jurkat cells treated with TNFα, cell viability
Type: cell-based, human
Conditions: for activity in the necroptosis assay, in words / Max Prot: FADD-deficient Jurkat cells treated with TNFα; for EC50: effective concentration for half-maximum response, inhibition of necroptosis in FADD-deficient Jurkat cells treated with TNFα; for Max Prot: max viability obtained in the presence of a compound; call rule not given here
Text: Herein we describe the structure activity analysis of Nec-5 analogs.

CCCc1sc2nc(SCC#N)n(-c3ccc(OC)cc3)c(=O)c2c1C [Compound 69]
activity in the necroptosis assay, in words: inactive | EC50: inactive

COc1ccc(-n2c(SCC#N)nc3sc(C(C)C)c(C)c3c2=O)cc1 [Compound 70]
activity in the necroptosis assay, in words: inactive | EC50: inactive

CCCCCCCCCCCCCCc1sc2nc(SCC#N)n(-c3ccc(OC)cc3)c(=O)c2c1C [Compound 71]
EC50: inactive

CCc1c(C)sc2nc(SCC#N)n(-c3ccc(OC)cc3)c(=O)c12 [Compound 72]
activity in the necroptosis assay, in words: preserved activity to a significant extent | EC50 (read-out: EC50): 1080 nM | Max Prot: 100%

COc1ccc(-n2c(SCC#N)nc3sc4c(c3c2=O)CCC4)cc1 [Compound 73]
activity in the necroptosis assay, in words: retained most of the activity; also recorded: showed activity; also recorded: exhibited a certain degree of activity | EC50 (read-out: EC50): 450 nM | Max Prot: 100%

COc1ccc(-n2c(SCC#N)nc3sc4c(c3c2=O)CCCCC4)cc1 [Compound 74]
activity in the necroptosis assay, in words: less active; also recorded: exhibited a certain degree of activity | EC50 (read-out: EC50): 960 nM | Max Prot: 83%

COc1ccc(-n2c(SCC#N)nc3sc4ccccc4c3c2=O)cc1 [Compound 76]
activity in the necroptosis assay, in words: retained most of the activity; also recorded: showed substantial activity; also recorded: showed good activity; also recorded: potent inhibitor; also recorded: exhibited a certain degree of activity | EC50 (read-out: EC50): 180 nM | Max Prot: 83.3%

CCN1CCc2c(sc3nc(SCC#N)n(-c4ccc(OC)cc4)c(=O)c23)C1 [Compound 77]
activity in the necroptosis assay, in words: essentially inactive | EC50: inactive

COc1ccc(-n2c(SCC#N)nc3sc4c(c3c2=O)CCN(C(C)C)C4)cc1 [Compound 78]
activity in the necroptosis assay, in words: essentially inactive | EC50: inactive

COc1ccc(-n2c(SC)nc3sccc3c2=O)cc1 [Compound 79]
EC50: inactive

COc1ccc(-n2c(SC)nc3scc(C)c3c2=O)cc1 [Compound 80]
EC50: inactive

COc1ccc(-n2c(SC)nc3sc(C)c(C)c3c2=O)cc1 [Compound 81]
EC50: inactive

CCc1c(C)sc2nc(SC)n(-c3ccc(OC)cc3)c(=O)c12 [Compound 82]
EC50: inactive

CCc1sc2nc(SC)n(-c3ccc(OC)cc3)c(=O)c2c1C [Compound 83]
EC50: inactive

CCCc1sc2nc(SC)n(-c3ccc(OC)cc3)c(=O)c2c1C [Compound 84]
EC50: inactive

COc1ccc(-n2c(SC)nc3sc(C(C)C)c(C)c3c2=O)cc1 [Compound 85]
EC50: inactive

CCCCCCCCCCCCCCc1sc2nc(SC)n(-c3ccc(OC)cc3)c(=O)c2c1C [Compound 86]
EC50: inactive

COc1ccc(-n2c(SC)nc3sc4c(c3c2=O)CCC4)cc1 [Compound 87]
activity in the necroptosis assay, in words: displayed higher activity than each change separately enacted | EC50 (read-out: EC50): 240 nM | Max Prot: 97.0%

COc1ccc(-n2c(SC)nc3sc4c(c3c2=O)CCCCC4)cc1 [Compound 88]
activity in the necroptosis assay, in words: lack of activity | EC50: inactive

COc1ccc(-n2c(SC)nc3sc4ccccc4c3c2=O)cc1 [Compound 90]
activity in the necroptosis assay, in words: potent inhibitor | EC50 (read-out: EC50): 240 nM | Max Prot: 77%

CCN1CCc2c(sc3nc(SC)n(-c4ccc(OC)cc4)c(=O)c23)C1 [Compound 91]
EC50: inactive

COc1ccc(-n2c(SC)nc3sc4c(c3c2=O)CCN(C(C)C)C4)cc1 [Compound 92]
EC50: inactive

CCSc1nc2sc3c(c2c(=O)n1-c1ccc(OC)cc1)CCC3 [Compound 93]
EC50: inactive

CCCSc1nc2sc3c(c2c(=O)n1-c1ccc(OC)cc1)CCC3 [Compound 94]
EC50: inactive

CCCCSc1nc2sc3c(c2c(=O)n1-c1ccc(OC)cc1)CCC3 [Compound 95]
EC50: inactive

CCCCCSc1nc2sc3c(c2c(=O)n1-c1ccc(OC)cc1)CCC3 [Compound 96]
EC50: inactive

C=CCSc1nc2sc3c(c2c(=O)n1-c1ccc(OC)cc1)CCC3 [Compound 97]
EC50: inactive

C#CCSc1nc2sc3c(c2c(=O)n1-c1ccc(OC)cc1)CCC3 [Compound 98]
EC50 (read-out: EC50): 2490 nM | Max Prot: 63.4%

COc1ccc(-n2c(SCc3ccccc3)nc3sc4c(c3c2=O)CCC4)cc1 [Compound 99]
EC50: inactive

COc1ccc(-n2c(SCc3ccc([N+](=O)[O-])cc3)nc3sc4c(c3c2=O)CCC4)cc1 [Compound 100]
EC50: inactive

COc1ccc(-n2c(SCC(C)=O)nc3sc4c(c3c2=O)CCC4)cc1 [Compound 101]
EC50: inactive

COc1ccc(-n2c(SC[N+](=O)[O-])nc3sc4c(c3c2=O)CCC4)cc1 [Compound 102]
EC50: inactive

COc1ccc(-n2c(SCCO)nc3sc4c(c3c2=O)CCC4)cc1 [Compound 103]
EC50 (read-out: EC50): 7140 nM | Max Prot: 100%

C#CCSc1nc2sccc2c(=O)n1-c1ccc(OC)cc1 [Compound 104]
EC50: inactive

C#CCSc1nc2scc(C)c2c(=O)n1-c1ccc(OC)cc1 [Compound 105]
EC50: inactive

C#CCSc1nc2sc(C)c(C)c2c(=O)n1-c1ccc(OC)cc1 [Compound 106]
activity in the necroptosis assay, in words: possess some activity | EC50 (read-out: EC50): 4860 nM | Max Prot: 90.3%

C#CCSc1nc2sc(CC)c(C)c2c(=O)n1-c1ccc(OC)cc1 [Compound 107]
EC50: inactive

C#CCSc1nc2sc(CCC)c(C)c2c(=O)n1-c1ccc(OC)cc1 [Compound 108]
EC50: inactive

C#CCSc1nc2sc3c(c2c(=O)n1-c1ccc(OC)cc1)CCCCC3 [Compound 109]
EC50: inactive

CCSc1nc2sc(C)c(C)c2c(=O)n1-c1ccc(OC)cc1 [Compound 110]
activity in the necroptosis assay, in words: inactive | EC50: inactive

CCSc1nc2sc(CC)c(C)c2c(=O)n1-c1ccc(OC)cc1 [Compound 111]
EC50: inactive

CCSc1nc2sc3c(c2c(=O)n1-c1ccc(OC)cc1)CCCCC3 [Compound 112]
EC50: inactive

COc1ccc(-n2c(SCCC#N)nc3sc(C)c(C)c3c2=O)cc1 [Compound 113]
EC50: inactive

COc1ccc(-n2c(SCCO)nc3sc(C)c(C)c3c2=O)cc1 [Compound 114]
activity in the necroptosis assay, in words: possess some activity | EC50 (read-out: EC50): 7260 nM | Max Prot: 78%

CCc1sc2nc(SCCO)n(-c3ccc(OC)cc3)c(=O)c2c1C [Compound 115]
EC50: inactive

CCCc1sc2nc(SCCO)n(-c3ccc(OC)cc3)c(=O)c2c1C [Compound 116]
EC50: inactive

CCCc1sc2nc(SCC)n(-c3ccc(OC)cc3)c(=O)c2c1C [Compound 117]
EC50: inactive

COc1ccc(-n2c(SCC(=O)O)nc3sc(C)c(C)c3c2=O)cc1 [Compound 118]
EC50: inactive

Cc1sc2nc(SCC#N)n(-c3ccc(F)cc3)c(=O)c2c1C [Compound 119]
EC50 (read-out: EC50): 4430 nM | Max Prot: 87.6%

CCc1sc2nc(SCC#N)n(-c3ccc(F)cc3)c(=O)c2c1C [Compound 120]
EC50: inactive

N#CCSc1nc2sc3c(c2c(=O)n1-c1ccc(F)cc1)CCC3 [Compound 121]
EC50 (read-out: EC50): 890 nM | Max Prot: 88.7%

N#CCSc1nc2sc3c(c2c(=O)n1-c1ccc(F)cc1)CCCCC3 [Compound 122]
activity in the necroptosis assay, in words: completely lacked activity | EC50: inactive

CSc1nc2sc(C)c(C)c2c(=O)n1-c1ccc(F)cc1 [Compound 123]
EC50 (read-out: EC50): 2600 nM | Max Prot: 69.2%

CCc1sc2nc(SC)n(-c3ccc(F)cc3)c(=O)c2c1C [Compound 124]
EC50: inactive

CSc1nc2sc3c(c2c(=O)n1-c1ccc(F)cc1)CCC3 [Compound 125]
EC50 (read-out: EC50): 3000 nM | Max Prot: 95%

Cc1sc2nc(SCC#N)n(-c3ccc4c(c3)OCO4)c(=O)c2c1C [Compound 127]
EC50 (read-out: EC50): 1650 nM | Max Prot: 100%

CCc1c(C)sc2nc(SCC#N)n(-c3ccc4c(c3)OCO4)c(=O)c12 [Compound 128]
EC50 (read-out: EC50): 1900 nM | Max Prot: 100%

N#CCSc1nc2sc3c(c2c(=O)n1-c1ccc2c(c1)OCO2)CCC3 [Compound 129]
EC50 (read-out: EC50): 1180 nM | Max Prot: 100%

CSc1nc2sc(C)c(C)c2c(=O)n1-c1ccc2c(c1)OCO2 [Compound 130]
EC50 (read-out: EC50): 1110 nM | Max Prot: 67.0%

CCc1c(C)sc2nc(SC)n(-c3ccc4c(c3)OCO4)c(=O)c12 [Compound 131]
activity in the necroptosis assay, in words: inactive | EC50: inactive

CSc1nc2sc3c(c2c(=O)n1-c1ccc2c(c1)OCO2)CCC3 [Compound 132]
activity in the necroptosis assay, in words: inactive | EC50: inactive

N#CCSc1nc2sc3c(c2c(=O)n1-c1ccc2c(c1)OCCO2)CCC3 [Compound 133]
EC50 (read-out: EC50): 250 nM | Max Prot: 100%

N#CCSc1nc2sc3c(c2c(=O)n1-c1ccc2c(c1)OCCO2)CCCC3 [Compound 134]
EC50 (read-out: EC50): 220 nM | Max Prot: 100%

N#CCSc1nc2sc3ccccc3c2c(=O)n1-c1ccc2c(c1)OCCO2 [Compound 135]
increase in activity versus para-methoxy (R5 ethylene dioxy compared with para-methoxy): ~2 fold | EC50 (read-out: EC50): 150 nM | Max Prot: 100%

Cc1sc2nc(SCC#N)n(-c3ccc4c(c3)OCCO4)c(=O)c2c1C [Compound 136]
EC50 (read-out: EC50): 250 nM | Max Prot: 100%

Cc1ccc(-n2c(SCC#N)nc3sc(C)c(C)c3c2=O)cc1C [Compound 137]
activity in the necroptosis assay, in words: showed higher activity than compound (43) | EC50 (read-out: EC50): 2790 nM | Max Prot: 90.7%

Cc1ccc(-n2c(SCC#N)nc3sc4c(c3c2=O)CCC4)cc1C [Compound 139]
activity in the necroptosis assay, in words: essentially inactive | EC50: inactive

CSc1nc2sc(C)c(C)c2c(=O)n1-c1ccc(C)c(C)c1 [Compound 140]
EC50: inactive
